Like-named read-outs stand apart in the source and are kept apart here.
What was measured:
recombinant human cGAS = recombinant human cGAS (Homo sapiens (Human), UniProt Q8N884); experiment: In vitro inhibition assay of cGAS activity (cGAMP production, RapidFire mass spectrometry); type: biochemical; details: 10 nM recombinant human cGAS, 60 nM 75-bp dsDNA, ATP, GTP, room temperature 3 hours, read-out: IC50 (μM), In vitro inhibition assay for Compounds 95-348
In short: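 Product cGAMP was quantified by RapidFire MS against a difluoro-cGAMP internal standard after a formic acid quench. The reaction contained 10 nM recombinant full-length human cGAS, 75-bp dsDNA (60 nM), ATP and GTP (50 μM) and ran for 3 h at room temperature. IC50 values came from 4-parameter nonlinear regression.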

[1] = test system: cGAS activity in THP1 cells (IFNb as marker); experiment: Cellular assay to measure cGAS activity (IFNb production in PMA-differentiated THP1 cells stimulated by RDG-Adenovirus-GFP); type: cell-based, human
In short: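 The readout is secreted IFNb measured by AlphaLISA after overnight compound exposure. THP1 cells, differentiated with PMA for 24 h and rested overnight, were infected with RDG-Adenovirus-GFP (1000 MOI, 4 h) before compounds were added; IC50 came from a 4-parameter logistic fit of inhibition against log concentration.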

[2] = Homo sapiens, THP-1, THP1 cells, PMA differentiated, RDG-Adenovirus-GFP 1000 MOI, IFNb AlphaLISA, overnight incubation, read-out: IC50 (μM), Cellular assay for Compounds 95-348

Sequence of recombinant human cGAS (Q8N884 whole entry): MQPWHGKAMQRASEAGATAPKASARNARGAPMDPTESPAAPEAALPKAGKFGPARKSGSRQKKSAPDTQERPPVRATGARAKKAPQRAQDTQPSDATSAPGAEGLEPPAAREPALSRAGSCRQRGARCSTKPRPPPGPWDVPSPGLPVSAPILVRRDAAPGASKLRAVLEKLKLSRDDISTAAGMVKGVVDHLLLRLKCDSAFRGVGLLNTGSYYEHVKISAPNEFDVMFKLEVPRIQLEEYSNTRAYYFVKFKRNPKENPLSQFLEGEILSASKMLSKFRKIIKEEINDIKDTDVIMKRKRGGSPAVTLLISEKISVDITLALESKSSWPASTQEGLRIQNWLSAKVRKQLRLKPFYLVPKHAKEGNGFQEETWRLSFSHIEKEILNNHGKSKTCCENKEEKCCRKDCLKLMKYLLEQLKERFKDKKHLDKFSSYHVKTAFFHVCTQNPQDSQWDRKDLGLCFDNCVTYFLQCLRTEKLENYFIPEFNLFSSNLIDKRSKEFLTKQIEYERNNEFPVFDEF

Compound `CN(C)C(=O)CCC(=O)N1CCn2c(c(-c3cn[nH]c3)c3c(NC(=O)C(F)F)cc(Cl)c(Cl)c32)C1` [Example 275, 4-[6,7-Dichloro-9-[(2,2-difluoroacetyl)amino]-10-(1H-pyrazol-4-yl)-3,4-dihydro-1H-pyrazino[1,2-a]indol-2-yl]-N,N-dimethyl-4-oxo-butanamide] has an IC50 (recombinant human cGAS) of 0.0284 µM and an IC50 [1, 2] of 4.01 µM.
For `CCOc1cc(Cl)c(Cl)c2c1c(-c1cn[nH]c1)c1n2CC[C@@H]1NC(C)=O` [Example 233, (S)—N-(5,6-Dichloro-8-ethoxy-9-(1H-pyrazol-4-yl)-2,3-dihydro-1H-pyrrolo[1,2-a]indol-1-yl)acetamide], the IC50 (recombinant human cGAS) was 0.0806 µM and the IC50 [1, 2] was 1.13 µM.
`CC(=O)NC1CCCn2c1c(-c1cn[nH]c1)c1c(OCC#N)cc(Cl)c(Cl)c12` (centres unmarked) [Example 202, N-[3,4-Dichloro-1-(cyanomethoxy)-10-(1H-pyrazol-4-yl)-6,7,8,9-tetrahydropyrido[1,2-a]indol-9-yl]acetamide] showed an IC50 (recombinant human cGAS) of 0.0191 µM and an IC50 [1, 2] of 2.68 µM.
`O=C(CF)Nc1cc(Cl)c(Cl)c2[nH]cc(-c3cn[nH]c3)c12` [Example 170, N-(6,7-Dichloro-3-(1H-pyrazol-4-yl)-1H-indol-4-yl)-2-fluoroacetamide] gave an IC50 (recombinant human cGAS) of 0.00567 µM and an IC50 ([1]; Homo sapiens, THP-1, read-out: IC50 (μM), Cellular assay for Compounds 95-348) of 0.129 µM.
In the case of `CC(=S)NCc1[nH]c2c(Cl)c(Cl)ccc2c1-c1cn[nH]c1` [Example 129, N-[[6,7-Dichloro-3-(1H-pyrazol-4-yl)-1H-indol-2-yl]methyl]thioacetamide], the IC50 (recombinant human cGAS) is reported as 0.0552 µM and the IC50 [1, 2] is reported as 0.895 µM.
Compound `O=C(Nc1cc(Cl)c(Cl)c2[nH]cc(-c3cn[nH]c3)c12)C(F)F` [Example 171, N-[6,7-Dichloro-3-(1H-pyrazol-4-yl)-1H-indol-4-yl]-2,2-difluoro-acetamide] has an IC50 (recombinant human cGAS) of 0.00356 µM and an IC50 [1, 2] of 0.0689 µM.
`N#CCOc1cc(Cl)c(Cl)c2c1c(-c1cn[nH]c1)c1n2CCC1CO` (centres unmarked) [Example 347, 2-((5,6-Dichloro-1-(hydroxymethyl)-9-(1H-pyrazol-4-yl)-2,3-dihydro-1H-pyrrolo[1,2-a]indol-8-yl)oxy)acetonitrile] gave an IC50 (recombinant human cGAS) of 0.0122 µM and an IC50 [1, 2] of 0.865 µM.
In the case of `O[C@@H]1C[C@H](Oc2cc(Cl)c(Cl)c3[nH]cc(-c4cn[nH]c4)c23)[C@@H](O)C1` (single isomer, unassigned) [Example 270, 4-[[6,7-Dichloro-3-(1H-pyrazol-4-yl)-1H-indol-4-yl]oxy]cyclopentane-1,3-diol], the IC50 (recombinant human cGAS) is reported as 0.0207 µM and the IC50 ([1]; THP1 cells, PMA differentiated, RDG-Adenovirus-GFP 1000 MOI, IFNb AlphaLISA, overnight incubation, read-out: IC50 (μM), Cellular assay for Compounds 95-348) is reported as 0.635 µM.
Work on `O=C(Nc1cc(Cl)c(Cl)c2[nH]cc(-c3cn[nH]c3)c12)C(F)(F)CO` [Example 169, N-(6,7-Dichloro-3-(1H-pyrazol-4-yl)-1H-indol-4-yl)-2,2-difluoro-3-hydroxypropanamide] yielded an IC50 (recombinant human cGAS) of 0.0138 µM and an IC50 [1, 2] of 0.656 µM.
`N#CCOc1cc(Cl)c(Cl)c2c1c(-c1cn[nH]c1)c1n2CCN(C(=O)[C@@H]2COCCO2)C1` [Example 285, (S)-2-((6,7-Dichloro-2-(1,4-dioxane-2-carbonyl)-10-(1H-pyrazol-4-yl)-1,2,3,4-tetrahydropyrazino[1,2-a]indol-9-yl)oxy)acetonitrile] was tested, and the IC50 (recombinant human cGAS) was 0.0126 µM and the IC50 [1, 2] was 1.19 µM.
For `COCC(=O)N1CCn2c(c(-c3cn[nH]c3)c3c(OCC#N)cc(Cl)c(Cl)c32)C1` [Example 279, 2-((6,7-Dichloro-2-(2-methoxyacetyl)-10-(1H-pyrazol-4-yl)-1,2,3,4-tetrahydropyrazino[1,2-a]indol-9-yl)oxy)acetonitrile], the IC50 (recombinant human cGAS) was 0.0072 µM and the IC50 [1, 2] was 0.74 µM.
`CCC(=O)NCc1[nH]c2c(Cl)c(Cl)ccc2c1-c1cn[nH]c1` [Example 163, N-[[6,7-Dichloro-3-(1H-pyrazol-4-yl)-1H-indol-2-yl]methyl]propanamide] was tested, and the IC50 (recombinant human cGAS) was 0.076 µM and the IC50 [1, 2] was 2.09 µM.
`CC(=O)N[C@H]1Cc2c(-c3cn[nH]c3)c3c(NC(=O)C(F)F)cc(Cl)c(Cl)c3n2C1` [Example 244, (S)—N-(2-Acetamido-5,6-dichloro-9-(1H-pyrazol-4-yl)-2,3-dihydro-1H-pyrrolo[1,2-a]indol-8-yl)-2,2-difluoroacetamide] was tested, and the IC50 (recombinant human cGAS) was 0.0099 µM and the IC50 [1, 2] was 0.531 µM.
